# Values of other authors, collected in publication PMC8202924, “Emodepside targets SLO-1 channels of Onchocerca ochengi and induces broad anthelmintic effects in a bovine model of onchocerciasis” (PLoS Pathogens, 2021).
# Test system: O. volvulus
# Settings: from ~10 years to 2–3 years; cited from earlier work
smiles,measurement,value
C[C@H]1c2cccc(O)c2C(=O)C2=C(O)[C@]3(O)C(=O)C(C(N)=O)=C(O)[C@@H](N(C)C)[C@@H]3[C@@H](O)[C@@H]21 [doxycycline],Reduction in worm lifespan,70–80%
